Test results: ChEMBL document CHEMBL4706534, “1,2,3-Triazole-containing hybrids with potential antibacterial activity against methicillin-resistant Staphylococcus aureus (MRSA)” (Eur J Med Chem, 2020)
pEC50, pIC50: −log10 of the molar value. ≈ marks a conversion by molar mass, not a printed value.

Experiments:
Staphylococcus aureus [1] = assay: Antibacterial activity against methicillin-resistant Staphylococcus aureus ATCC 43300 incubated for 16 to 18 hrs by CLSI based assay; type: functional; settings: time 16-18 hrs
Staphylococcus aureus [2] = assay: Antibacterial activity against Staphylococcus aureus DSM 20231 incubated for 16 to 18 hrs by CLSI based assay; type: functional; settings: time 16-18 hrs
Staphylococcus aureus [3] = assay: Resistance index, ratio of MIC for antibacterial activity against Staphylococcus aureus ATCC 43300 incubated for 16 to 18 hrs by CLSI based assay to MIC for antibacterial activity against Staphylococcus aureus DSM 20231 incubated for 16 to 18 hrs by CLSI based assay; type: functional; settings: time 16-18 hrs
Staphylococcus aureus [4] = assay: Antibacterial activity against Methicillin-resistant Staphylococcus aureus ATCC 33591; type: functional, organism-based
Staphylococcus aureus [5] = assay: Antibacterial activity against Staphylococcus aureus ATCC 29213; type: functional, organism-based
Staphylococcus aureus [6] = assay: microbe, parasite or virus in culture; settings: 725
Staphylococcus aureus [7] = assay: microbe, parasite or virus in culture; settings: 936
Staphylococcus aureus [8] = assay: Antibacterial activity against Staphylococcus aureus C463 incubated for 18 hrs by CLSI-based two fold agar dilution method; type: functional
Staphylococcus aureus [9] = assay: Antibacterial activity against Staphylococcus aureus NRS119 incubated for 18 hrs by CLSI-based two fold agar dilution method; type: functional
Staphylococcus aureus [10] = assay: Antibacterial activity against Staphylococcus aureus NRS121 incubated for 18 hrs by CLSI-based two fold agar dilution method; type: functional
Staphylococcus aureus [11] = assay: Antibacterial activity against Staphylococcus aureus NRS127 incubated for 18 hrs by CLSI-based two fold agar dilution method; type: functional
Staphylococcus aureus [12] = assay: Antibacterial activity against Staphylococcus aureus NRS271 incubated for 18 hrs by CLSI-based two fold agar dilution method; type: functional
Staphylococcus aureus [13] = assay: Antibacterial activity against methicillin-resistant Staphylococcus aureus; type: functional
[14] = tested on: Staphylococcus epidermidis; assay: Antibacterial activity against methicillin-resistant Staphylococcus epidermidis; type: functional
Staphylococcus aureus [15] = assay: Antibacterial activity against methicillin-resistant Staphylococcus aureus ATCC 33591 measured after 18 hrs by CLSI-based broth microdilution method; type: functional
Staphylococcus aureus [16] = assay: Antibiofilm activity against methicillin-resistant Staphylococcus aureus ATCC BAA-44 incubated for 24 hrs by crystal violet-staining based assay; type: functional, organism-based; settings: ATCC BAA-44, 24 h
Staphylococcus aureus [17] = assay: Antibiofilm activity against methicillin-resistant Staphylococcus aureus ATCC BAA-44 assessed as disruption of preformed biofilms incubated for 24 hrs by CV-staining based assay; type: functional, organism-based; settings: ATCC BAA-44, 24 h
Staphylococcus aureus [18] = assay: Potentiation of oxacillin-induced antibacterial activity against methicillin-resistant Staphylococcus aureus ATCC BAA-44 assessed as reduction in oxacillin MIC preincubated for 30 mins followed by oxacillin addition and measured after 16 hrs by broth microdilution method; type: functional; settings: time 16.5 hrs
Staphylococcus aureus [19] = assay: Antibacterial activity against methicillin-sensitive Staphylococcus aureus; type: functional
[20] = tested on: Staphylococcus epidermidis; assay: Antibacterial activity against methicillin-sensitive Staphylococcus epidermidis; type: functional
Enterococcus faecalis = assay: Antibacterial activity against Enterococcus faecalis; type: functional
Enterococcus faecium = assay: Antibacterial activity against Enterococcus faecium; type: functional
Escherichia coli = assay: Antibacterial activity against Escherichia coli; type: functional
Klebsiella pneumoniae = assay: Antibacterial activity against Klebsiella pneumoniae; type: functional
Enterobacter cloacae = assay: Antibacterial activity against Enterobacter cloacae; type: functional
Klebsiella aerogenes = assay: Antibacterial activity against Enterobacter aerogenes; type: functional
Providencia rettgeri = assay: Antibacterial activity against Providencia rettgeri; type: functional
Proteus vulgaris = assay: Antibacterial activity against Proteus vulgaris; type: functional
[21] = Cytotoxicity against CHO cells; type: cell-based, Cricetulus griseus; settings: chinese hamster

With `N=C(N)NCCC[C@H](NC(=O)[C@H](Cc1c[nH]c2ccccc12)NC(=O)[C@@H](N)CCCNC(=N)N)C(=O)N[C@@H](Cc1c[nH]c2ccccc12)C(=O)N[C@@H](CCCCn1cc(COc2cc(OCc3cn(CCCC[C@H](NC(=O)[C@H](Cc4c[nH]c5ccccc45)NC(=O)[C@H](CCCNC(=N)N)NC(=O)[C@H](Cc4c[nH]c5ccccc45)NC(=O)[C@@H](N)CCCNC(=N)N)C(N)=O)nn3)cc(OCc3cn(CCCC[C@H](NC(=O)[C@H](Cc4c[nH]c5ccccc45)NC(=O)[C@H](CCCNC(=N)N)NC(=O)[C@H](Cc4c[nH]c5ccccc45)NC(=O)[C@@H](N)CCCNC(=N)N)C(N)=O)nn3)c2)nn1)C(N)=O` the MIC (Staphylococcus aureus [1]) was 2.7 µM (≈ 7.58 µg/mL), the MIC (Staphylococcus aureus [2]) was 5.4 µM (≈ 15.2 µg/mL) and the Ratio (Staphylococcus aureus [3]) was 0.5.
With `COc1c(Cn2cc(-c3nnc(-c4ccccc4)o3)nn2)c(OC)c(OC)c(OC)c1OC` the IC50 (Staphylococcus aureus [4]) was 6.4 µg/mL (≈ 14.1 µM) and the IC50 (Staphylococcus aureus [5]) was 7 µg/mL (≈ 15.4 µM).
With `Cc1nnc(SCC2=C(C(=O)O)N3C(=O)[C@@H](NC(=O)Cn4cnnn4)[C@H]3SC2)s1` [CEFAZOLIN SODIUM] the MIC (Staphylococcus aureus [6]) was 32 µM and the MIC (Staphylococcus aureus [7]) was 8 µM.
`O=C1CC2CN(c3ccc(N4C[C@H](Cn5ccnn5)OC4=O)cc3F)CC2C1` (some centres not stated) gave an MIC (Staphylococcus aureus [8]) of 3.12 µg/mL (≈ 8.1 µM).
In the case of `CC(=O)NC[C@H]1CN(c2ccc(N3C[C@H]4CC(n5ccnn5)C[C@H]4C3)c(F)c2)C(=O)O1` (some centres not stated), the MIC (Staphylococcus aureus [9]) was 16 µg/mL (≈ 37.3 µM), the MIC (Staphylococcus aureus [10]) was 16 µg/mL (≈ 37.3 µM) and the MIC (Staphylococcus aureus [11]) was 16 µg/mL (≈ 37.3 µM). For the same compound, the MIC (Staphylococcus aureus [12]) was 16 µg/mL (≈ 37.3 µM).
`CC[C@@H](C(=O)[C@@H](C)[C@@H](O)[C@H](C)[C@@H]1O[C@@H]([C@@H](CC)C(=O)NCc2cn([C@H]3C[C@H](n4cc(F)c(=O)[nH]c4=O)O[C@@H]3CO)nn2)CC[C@@H]1C)[C@H]1O[C@]2(C=C[C@@H](O)[C@]3(CC[C@@](C)([C@H]4CC[C@](O)(CC)[C@H](C)O4)O3)O2)[C@H](C)C[C@@H]1C` gave an MIC (Staphylococcus aureus [13]) of 32 µg/mL (≈ 30.2 µM) and an MIC [14] of 32 µg/mL (≈ 30.2 µM).
Compound `CC(=O)NC[C@H]1CN(c2ccc(N3CCN(C(=O)c4cn(C[C@H]5O[C@@H](n6cc(C)c(=O)[nH]c6=O)[C@H](O)[C@@H]5O)nn4)CC3)c(F)c2)C(=O)O1` has an MIC (Staphylococcus aureus [15]) of 64 µg/mL (≈ 95.3 µM).
With `CCCCCCc1ccc(C(=O)NCCn2cc(CCCCCc3c[nH]c(N)n3)nn2)cc1` the pIC50 (Staphylococcus aureus [16]) was 6.15, the pEC50 (Staphylococcus aureus [17]) was 6.05 and the “fold change (FC)” value (Staphylococcus aureus [18]) was 64.
For `COc1c(N2C[C@@H]3CCCN(C(=O)Cn4cc(CN5C(=O)C(=O)c6ccccc65)nn4)[C@@H]3C2)c(F)cc2c(=O)c(C(=O)O)cn(C3CC3)c12`, the MIC (Staphylococcus aureus [19]) was ≤ 0.03 µg/mL, the MIC (Staphylococcus aureus [13]) was 1 µg/mL (≈ 1.49 µM) and the MIC [20] was ≤ 0.03 µg/mL. For the same compound, the MIC (Enterococcus faecalis) was ≤ 0.03 µg/mL, the MIC (Enterococcus faecium) was ≤ 0.03 µg/mL and the MIC (Escherichia coli) was ≤ 0.03 µg/mL. The MIC (Klebsiella pneumoniae) was ≤ 0.03 µg/mL, the MIC (Enterobacter cloacae) was ≤ 0.03 µg/mL and the MIC (Klebsiella aerogenes) was ≤ 0.03 µg/mL. The MIC (Providencia rettgeri) was ≤ 0.03 µg/mL, the MIC (Proteus vulgaris) was ≤ 0.03 µg/mL and the CC50 [21] was 64 µg/mL (≈ 95.6 µM).
With `CO/N=C1\C(=O)N(Cc2cn(CC(=O)N3CCC[C@H]4CN(c5c(F)cc6c(=O)c(C(=O)O)cn(C7CC7)c6c5OC)C[C@H]43)nn2)c2ccc(C)cc21` the MIC (Staphylococcus aureus [19]) was ≤ 0.03 µg/mL, the MIC (Staphylococcus aureus [13]) was 1 µg/mL (≈ 1.4 µM) and the MIC [20] was ≤ 0.03 µg/mL. The MIC (Enterococcus faecalis) was ≤ 0.03 µg/mL, the MIC (Enterococcus faecium) was ≤ 0.03 µg/mL and the MIC (Escherichia coli) was ≤ 0.03 µg/mL. For the same compound, the MIC (Klebsiella pneumoniae) was ≤ 0.03 µg/mL, the MIC (Enterobacter cloacae) was ≤ 0.03 µg/mL and the MIC (Klebsiella aerogenes) was ≤ 0.03 µg/mL. The MIC (Providencia rettgeri) was ≤ 0.03 µg/mL, the MIC (Proteus vulgaris) was ≤ 0.03 µg/mL and the CC50 [21] was 32 µg/mL (≈ 44.9 µM).
